Test results: PubChem BioAssay AID2060492 (Molecular Pharmacology Branch, DTP, NCI, 2025)

Tested on: 695427-040-R-J1-PDC complex spheroids, viability percent T/C
Assay: Anticancer human tumor 695427-040-R-J1-PDC patient-derived colon adenocarcinoma cell line growth inhibition [GQUAD]
Details: for IC50: curve of first compound; for viability, T/C: stronger effect = lower value
Outline: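 Tumor cells were grown as complex spheroids with HUVEC endothelial cells and mesenchymal stem cells as stroma. G-quadruplex stabilizers were combined with targeted agents over half-log dilutions from near the clinical Cmax, or from 10 microM.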

[1] = second compound 0.0316 µM, first compound 0.0316 µM
[2] = second compound 0.0316 µM, first compound 0.1 µM
[3] = second compound 0.0316 µM, first compound 0.316 µM
[4] = second compound 0.0316 µM, first compound 1 µM
[5] = second compound 0.0316 µM, first compound 3.16 µM
[6] = second compound 0.0316 µM, first compound 10 µM
[7] = second compound 0.1 µM, first compound 0.0316 µM
[8] = second compound 0.1 µM, first compound 0.1 µM
[9] = second compound 0.1 µM, first compound 0.316 µM
[10] = second compound 0.1 µM, first compound 1 µM
[11] = second compound 0.1 µM, first compound 3.16 µM
[12] = second compound 0.1 µM, first compound 10 µM
[13] = second compound 0.316 µM, first compound 0.0316 µM
[14] = second compound 0.316 µM, first compound 0.1 µM
[15] = second compound 0.316 µM, first compound 0.316 µM
[16] = second compound 0.316 µM, first compound 1 µM
[17] = second compound 0.316 µM, first compound 3.16 µM
[18] = second compound 0.316 µM, first compound 10 µM
[19] = second compound 1 µM, first compound 0.0316 µM
[20] = second compound 1 µM, first compound 0.1 µM
[21] = second compound 1 µM, first compound 0.316 µM
[22] = second compound 1 µM, first compound 1 µM
[23] = second compound 1 µM, first compound 3.16 µM
[24] = second compound 1 µM, first compound 10 µM
[25] = second compound 3.16 µM, first compound 0.0316 µM
[26] = second compound 3.16 µM, first compound 0.1 µM
[27] = second compound 3.16 µM, first compound 0.316 µM
[28] = second compound 3.16 µM, first compound 1 µM
[29] = second compound 3.16 µM, first compound 3.16 µM
[30] = second compound 3.16 µM, first compound 10 µM
[31] = second compound 10 µM, first compound 0.0316 µM
[32] = second compound 10 µM, first compound 0.1 µM
[33] = second compound 10 µM, first compound 0.316 µM
[34] = second compound 10 µM, first compound 1 µM
[35] = second compound 10 µM, first compound 3.16 µM
[36] = second compound 10 µM, first compound 10 µM
[37] = second compound 0.0316 µM, first compound 0.000999 µM
[38] = second compound 0.0316 µM, first compound 0.00316 µM
[39] = second compound 0.0316 µM, first compound 0.00999 µM
[40] = second compound 0.0316 µM, first compound 0.0999 µM
[41] = second compound 0.1 µM, first compound 0.000999 µM
[42] = second compound 0.1 µM, first compound 0.00316 µM
[43] = second compound 0.1 µM, first compound 0.00999 µM
[44] = second compound 0.1 µM, first compound 0.0999 µM
[45] = second compound 0.316 µM, first compound 0.000999 µM
[46] = second compound 0.316 µM, first compound 0.00316 µM
[47] = second compound 0.316 µM, first compound 0.00999 µM
[48] = second compound 0.316 µM, first compound 0.0999 µM
[49] = second compound 1 µM, first compound 0.000999 µM
[50] = second compound 1 µM, first compound 0.00316 µM
[51] = second compound 1 µM, first compound 0.00999 µM
[52] = second compound 1 µM, first compound 0.0999 µM
[53] = second compound 3.16 µM, first compound 0.000999 µM
[54] = second compound 3.16 µM, first compound 0.00316 µM
[55] = second compound 3.16 µM, first compound 0.00999 µM
[56] = second compound 3.16 µM, first compound 0.0999 µM
[57] = second compound 10 µM, first compound 0.000999 µM
[58] = second compound 10 µM, first compound 0.00316 µM
[59] = second compound 10 µM, first compound 0.00999 µM
[60] = second compound 10 µM, first compound 0.0999 µM
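Note: spheroids exposed to compounds for seven days before readout.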

Compound: C=CC(=O)N1CCN(c2nc(=O)n(-c3c(C)ccnc3C(C)C)c3nc(-c4c(O)cccc4F)c(F)cc23)C(C)C1 (stereo not drawn) + Cc1cnc(CNC(=O)c2c(=O)c3ccc(N4CCCN(C)CC4)nc3n3c2sc2ccccc23)cn1
- IC50 (second compound 0.0316 µM): > 10000 nM
- IC50 (second compound 0.1 µM): > 10000 nM
- IC50 (second compound 0.316 µM): > 10000 nM
- IC50 (second compound 1 µM): > 10000 nM
- IC50 (second compound 3.16 µM): < 31.6 nM
- IC50 (second compound 10 µM): < 31.6 nM
- viability, T/C [1]: 103%
- viability, T/C [2]: 77%
- viability, T/C [3]: 95.1%
- viability, T/C [4]: 68.5%
- viability, T/C [5]: 75.7%
- viability, T/C [6]: 71.6%
- viability, T/C [7]: 89.2%
- viability, T/C [8]: 81.7%
- viability, T/C [9]: 82.3%
- viability, T/C [10]: 67.7%
- viability, T/C [11]: 102%
- viability, T/C [12]: 90.9%
- viability, T/C [13]: 85.7%
- viability, T/C [14]: 78.7%
- viability, T/C [15]: 70.5%
- viability, T/C [16]: 73.9%
- viability, T/C [17]: 92.6%
- viability, T/C [18]: 83.8%
- viability, T/C [19]: 67.6%
- viability, T/C [20]: 59.4%
- viability, T/C [21]: 60%
- viability, T/C [22]: 65.1%
- viability, T/C [23]: 77.6%
- viability, T/C [24]: 79.7%
- viability, T/C [25]: 37.7%
- viability, T/C [26]: 50.9%
- viability, T/C [27]: 54.2%
- viability, T/C [28]: 54.4%
- viability, T/C [29]: 64.1%
- viability, T/C [30]: 57.5%
- viability, T/C [31]: 34.2%
- viability, T/C [32]: 41.6%
- viability, T/C [33]: 44.5%
- viability, T/C [34]: 44.7%
- viability, T/C [35]: 58.6%
- viability, T/C [36]: 49.7%

Compound: Cn1ncnc1[C@H]1c2n[nH]c(=O)c3cc(F)cc(c23)N[C@@H]1c1ccc(F)cc1 + Cc1cnc(CNC(=O)c2c(=O)c3ccc(N4CCCN(C)CC4)nc3n3c2sc2ccccc23)cn1
- IC50 (second compound 0.0316 µM): > 316 nM
- IC50 (second compound 0.1 µM): > 316 nM
- IC50 (second compound 0.316 µM): > 316 nM
- IC50 (second compound 1 µM): > 316 nM
- IC50 (second compound 3.16 µM): > 316 nM
- IC50 (second compound 10 µM): < 0.999 nM
- viability, T/C [37]: 98.9%
- viability, T/C [38]: 84.2%
- viability, T/C [39]: 96.4%
- viability, T/C [1]: 66.4%
- viability, T/C [40]: 86.2%
- viability, T/C [3]: 71.7%
- viability, T/C [41]: 93.5%
- viability, T/C [42]: 101%
- viability, T/C [43]: 87.5%
- viability, T/C [7]: 62.9%
- viability, T/C [44]: 91.8%
- viability, T/C [9]: 60.6%
- viability, T/C [45]: 65.7%
- viability, T/C [46]: 83.5%
- viability, T/C [47]: 88.1%
- viability, T/C [13]: 71.5%
- viability, T/C [48]: 66%
- viability, T/C [15]: 66%
- viability, T/C [49]: 53.7%
- viability, T/C [50]: 53.9%
- viability, T/C [51]: 60.7%
- viability, T/C [19]: 55.9%
- viability, T/C [52]: 82.5%
- viability, T/C [21]: 56.5%
- viability, T/C [53]: 51.6%
- viability, T/C [54]: 48.7%
- viability, T/C [55]: 53%
- viability, T/C [25]: 62.1%
- viability, T/C [56]: 63.3%
- viability, T/C [27]: 46.5%
- viability, T/C [57]: 37.8%
- viability, T/C [58]: 44.7%
- viability, T/C [59]: 58.2%
- viability, T/C [31]: 47.7%
- viability, T/C [60]: 58.5%
- viability, T/C [33]: 40.1%

Compound: CC1COCCN1c1cc(C2(S(C)(=N)=O)CC2)nc(-c2ccnc3[nH]ccc23)n1 (stereo not drawn) + Cc1cnc(CNC(=O)c2c(=O)c3ccc(N4CCCN(C)CC4)nc3n3c2sc2ccccc23)cn1
- IC50 (second compound 0.0316 µM): > 10000 nM
- IC50 (second compound 0.1 µM): > 10000 nM
- IC50 (second compound 0.316 µM): > 10000 nM
- IC50 (second compound 1 µM): > 10000 nM
- IC50 (second compound 3.16 µM): < 31.6 nM
- IC50 (second compound 10 µM): < 31.6 nM
- viability, T/C [1]: 95.6%
- viability, T/C [2]: 93.5%
- viability, T/C [3]: 95.3%
- viability, T/C [4]: 94.2%
- viability, T/C [5]: 74.8%
- viability, T/C [6]: 66.2%
- viability, T/C [7]: 85.2%
- viability, T/C [8]: 79.1%
- viability, T/C [9]: 89.3%
- viability, T/C [10]: 64.4%
- viability, T/C [11]: 74.2%
- viability, T/C [12]: 55.4%
- viability, T/C [13]: 76.8%
- viability, T/C [14]: 71.5%
- viability, T/C [15]: 77.5%
- viability, T/C [16]: 66.1%
- viability, T/C [17]: 77.9%
- viability, T/C [18]: 50.4%
- viability, T/C [19]: 51.8%
- viability, T/C [20]: 66.6%
- viability, T/C [21]: 59.7%
- viability, T/C [22]: 66.7%
- viability, T/C [23]: 62.7%
- viability, T/C [24]: 47.3%
- viability, T/C [25]: 33.4%
- viability, T/C [26]: 58.1%
- viability, T/C [27]: 53.2%
- viability, T/C [28]: 49.4%
- viability, T/C [29]: 51.5%
- viability, T/C [30]: 36.9%
- viability, T/C [31]: 33.8%
- viability, T/C [32]: 36.5%
- viability, T/C [33]: 41.7%
- viability, T/C [34]: 39.1%
- viability, T/C [35]: 44%
- viability, T/C [36]: 25.5%

Compound: CCc1c2c(nc3ccc(O)cc13)-c1cc3c(c(=O)n1C2)COC(=O)[C@]3(O)CC + CN(C)c1ccc(Nc2c3ccc(NC(=O)CCN4CCCC4)cc3nc3cc(NC(=O)CCN4CCCC4)ccc23)cc1
- IC50 (second compound 0.0316 µM): > 316 nM
- IC50 (second compound 0.1 µM): > 316 nM
- IC50 (second compound 0.316 µM): > 316 nM
- IC50 (second compound 1 µM): > 316 nM
- IC50 (second compound 3.16 µM): 247 nM
- IC50 (second compound 10 µM): 252 nM
- viability, T/C [37]: 104%
- viability, T/C [38]: 94.5%
- viability, T/C [39]: 93.3%
- viability, T/C [1]: 74.7%
- viability, T/C [40]: 70.8%
- viability, T/C [3]: 51.3%
- viability, T/C [41]: 108%
- viability, T/C [42]: 90.2%
- viability, T/C [43]: 85.4%
- viability, T/C [7]: 73.2%
- viability, T/C [44]: 68.5%
- viability, T/C [9]: 53.2%
- viability, T/C [45]: 103%
- viability, T/C [46]: 94%
- viability, T/C [47]: 84%
- viability, T/C [13]: 75%
- viability, T/C [48]: 64.2%
- viability, T/C [15]: 49.6%
- viability, T/C [49]: 99.2%
- viability, T/C [50]: 89.3%
- viability, T/C [51]: 82.1%
- viability, T/C [19]: 76.1%
- viability, T/C [52]: 66.8%
- viability, T/C [21]: 51%
- viability, T/C [53]: 94.2%
- viability, T/C [54]: 97.8%
- viability, T/C [55]: 85.7%
- viability, T/C [25]: 76.5%
- viability, T/C [56]: 64.2%
- viability, T/C [27]: 46.2%
- viability, T/C [57]: 90.2%
- viability, T/C [58]: 88%
- viability, T/C [59]: 71.9%
- viability, T/C [31]: 69.2%
- viability, T/C [60]: 60.7%
- viability, T/C [33]: 46.3%
